Where “and” joins values, the source holds several entries; their conditions need not be identical. Equal entries are not always repeated. Calls of active or inactive are those of the source.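 The calls were made as follows: active = fitted half-maximal concentration for change in GFP expression of 33 µM or less; inactive = the rest.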
Assay: concentration-dependent AGP1-GFP change, TOR pathway – cell-based, flow cytometry, S. cerevisiae, MLPCN hits, dose response (AID 2743)
Conditions: S. cerevisiae AGP1-GFP strain, flow cytometry GFP, 3 h; at 33 µM (top of the series)
With O=C(/C=C/c1ccccc1)c1cc(Br)ccc(=O)c1O the GFP fluorescence (kMESF) was -1.01 kMESF (inactive).
In the case of COc1ccc(NC2=C(Cl)C(=O)N(CCc3ccccc3)C2=O)cc1, the GFP fluorescence (kMESF) is reported as 43.7 kMESF (inactive).
With CC(=O)N(\C=C/C=C/C=C1\Sc2ccccc2C1=O)c1ccccc1 the GFP fluorescence (kMESF) was 38.7 kMESF (inactive).
For Cc1ccc2c(c1)c(/C=C/c1cc[n+](C)cc1)c(C)n2C, the GFP fluorescence (kMESF) was 48.2 kMESF (inactive).
For COc1ccc(N2C(=O)C(Cl)=C(NCc3ccccc3)C2=O)cc1, the GFP fluorescence (kMESF) was 40.6 kMESF (inactive).
In the case of O=C1c2ccccc2C(=O)N1OS(=O)(=O)c1ccc(F)cc1, the GFP fluorescence (kMESF) is reported as 27 kMESF (inactive).
In the case of COc1cc(/C=C2\C(=O)ON=C2c2ccccc2)cc(Br)c1O, the GFP fluorescence (kMESF) is reported as 28.7 kMESF (inactive).
For C#CCOc1c(Br)cc(/C=C2/C(=O)ON=C2C)cc1OC, the GFP fluorescence (kMESF) was 27.6 kMESF (inactive).
For Cc1ccc(C(=O)Oc2oc(-c3ccco3)nc2C=Nc2ccc(Cl)cc2)cc1, the GFP fluorescence (kMESF) was 35 kMESF (inactive).
With O=[N+]([O-])c1cc(S(=O)(=O)C(F)(F)F)ccc1Sc1nc2ccccc2s1 the GFP fluorescence (kMESF) was 39.1 kMESF (inactive).
With COc1ccc(C(=O)NC(=S)NNC(=O)c2cnccn2)cc1OC the GFP fluorescence (kMESF) was 30.2 kMESF (inactive).
In the case of O=S1(=O)C=C(Sc2nc3ccccc3s2)c2ccccc21, the GFP fluorescence (kMESF) is reported as 34.3 kMESF (inactive).
With Cc1ccc(NC(=O)ON=C2CCCC2)cc1 the GFP fluorescence (kMESF) was 26.4 kMESF (inactive).
With CCCCC(=O)NNC(=S)NC(=O)c1ccc(C)cc1 the GFP fluorescence (kMESF) was 58.2 kMESF (inactive).
With O=C(NC(=S)Nc1ccc2oc(=O)ccc2c1)c1cccc(Cl)c1 the GFP fluorescence (kMESF) was 29.8 kMESF (inactive).
In the case of CCOC(=O)Cn1cc(/C=C/[N+](=O)[O-])c2ccccc21, the GFP fluorescence (kMESF) is reported as 43.7 kMESF (inactive).
For O=S(=O)(CCN(CCS(=O)(=O)C(F)(F)F)CC1CCCO1)C(F)(F)F (centres undefined), the GFP fluorescence (kMESF) was 35.8 kMESF (inactive).
In the case of CC(C)(C)n1nc(-c2ccc(F)cc2)c2c(N)ncnc21, the GFP fluorescence (kMESF) is reported as 40.2 kMESF (inactive).
For COc1cc(/C=C2/C(=O)c3cccc([N+](=O)[O-])c3C2=O)c(Br)cc1O, the GFP fluorescence (kMESF) was 32.9 kMESF (inactive).
In the case of CC(C)(C)c1nnc(N/N=C/c2cc(Br)ccc2O)n(N)c1=O, the GFP fluorescence (kMESF) is reported as 34.2 kMESF (inactive).
In the case of CC(C)[C@@]1(c2ccccc2)ON(c2ccccc2C(F)(F)F)C1=O, the GFP fluorescence (kMESF) is reported as 37.1 kMESF (inactive).
In the case of O=C1NC(=O)C(=Cc2ccc(-c3ccc(Cl)cc3)o2)C(=O)N1, the GFP fluorescence (kMESF) is reported as 22.3 kMESF (inactive).
In the case of O=C(O)c1cc[c]([Hg][Cl])cc1, the GFP fluorescence (kMESF) is reported as 32.1 kMESF (inactive).
For CC(=O)SC(C[N+](=O)[O-])c1cn(C(C)=O)c2ccccc12 (centres undefined), the GFP fluorescence (kMESF) was 36.3 kMESF (inactive).
For Cc1ccccc1N=Nc1ccc(O)c2ncccc12, the GFP fluorescence (kMESF) was 31.9 kMESF (inactive).
In the case of Cc1[nH]n(-c2ccccc2)c(=O)c1C(c1ccccc1[N+](=O)[O-])C(C#N)C#N (centres undefined), the GFP fluorescence (kMESF) is reported as 36.6 kMESF (inactive).
With O=C(Nc1nnc(-c2ccc3c(c2)CCCC3)o1)c1ccc(Cl)cc1Cl the GFP fluorescence (kMESF) was 20.9 kMESF (inactive).
In the case of O=C1C(Cl)=C(NCCc2ccccc2)C(=O)N1CCc1ccccc1, the GFP fluorescence (kMESF) is reported as 43.3 kMESF (inactive).
For O=[N+]([O-])c1ccc(O)c2ncccc12, the GFP fluorescence (kMESF) was 39.4 kMESF (inactive) and 32.2 kMESF (inactive).
In the case of COc1cccc(/C=C2\SC(=S)N(CCCC(=O)Nc3ccc(C(=O)O)cc3)C2=O)c1, the GFP fluorescence (kMESF) is reported as 34.8 kMESF (inactive).
With O=c1cc(-c2ccccc2)cc(-c2ccccc2)n1O the GFP fluorescence (kMESF) was 22.5 kMESF (inactive).
For CN(C)NC(=S)Nc1ccc(S(=O)(=O)N2CCCCC2)cc1, the GFP fluorescence (kMESF) was 40.4 kMESF (inactive).
With COC(=O)c1cc(N2C(=O)C3C(C2=O)C2(C)C=CC3(C)O2)ccc1Cl (centres undefined) the GFP fluorescence (kMESF) was 47.1 kMESF (inactive).
For CC(=O)OC[C@]12CC[C@H]3[C@@](C)(CC[C@H]4C(C)(C)CCC[C@]34C)[C@@H]1C[C@H](C1=CC(=O)O[C@@H]1OC(C)=O)O2, the GFP fluorescence (kMESF) was 31 kMESF (inactive).
In the case of O=C1C=CC(=O)N1c1cccc(-c2ccccc2)c1, the GFP fluorescence (kMESF) is reported as 44.7 kMESF (inactive).
For CCCOc1ccc(C(=O)NNC(=S)NC(=O)c2ccccc2)cc1, the GFP fluorescence (kMESF) was 45.1 kMESF (inactive).
In the case of On1ccccc1=S, the GFP fluorescence (kMESF) is reported as 35.2 kMESF (inactive).
In the case of O=C(Oc1c(Cl)cc(Cl)c2cccnc12)c1ccco1, the GFP fluorescence (kMESF) is reported as 40.7 kMESF (inactive).
For C#CCOCCOCCOCCNc1nc(N2CCN(C(=O)CCCCCCCCCCNC(=O)[C@H](CCCCN)n3cc(CCO)nn3)CC2)nc(N2CCN(C(=O)CCCCCCCCCCNC(=O)[C@H](CCCCN)n3cc(C[C@@H](C)CC)nn3)CC2)n1, the GFP fluorescence (kMESF) was 51.4 kMESF (inactive).
In the case of ClC(Cl)(c1nnnn1-c1ccccc1)c1nnnn1-c1ccccc1, the GFP fluorescence (kMESF) is reported as 35.1 kMESF (inactive).
In the case of COc1cccc2sc(Nc3nc(-c4ccccn4)cs3)nc12, the GFP fluorescence (kMESF) is reported as 34.7 kMESF (inactive).
In the case of Oc1c(Br)cc(Br)cc1C=Nc1ccc2[nH]ncc2c1, the GFP fluorescence (kMESF) is reported as 37.5 kMESF (inactive).
With CC[C@H](C)/C=C(C)/C=C/C1=CC2=C(Cl)C(=O)[C@@](C)(OC(C)=O)C(=O)C2=CO1 the GFP fluorescence (kMESF) was 1.57 kMESF (inactive).
In the case of O=c1oc(/C=C/c2ccc([N+](=O)[O-])s2)nc2ccccc12, the GFP fluorescence (kMESF) is reported as 37.9 kMESF (inactive).
With COc1ccccc1OCCCc1c(C)n[nH]c1C the GFP fluorescence (kMESF) was 31.1 kMESF (inactive).
In the case of Cc1[nH]c2ccccc2c1C(=O)COC(=O)c1ccc([N+](=O)[O-])s1, the GFP fluorescence (kMESF) is reported as 16.9 kMESF (inactive).
With O=C1C(Cl)=C(Nc2ccccc2O)C(=O)N1c1ccccc1 the GFP fluorescence (kMESF) was 38.4 kMESF (inactive).
In the case of CNC(CC(=O)c1ccc([N+](=O)[O-])cc1)C(Cl)(Cl)Cl (centres undefined), the GFP fluorescence (kMESF) is reported as 25.2 kMESF (inactive).
In the case of CC(=O)n1cc(C(C[N+](=O)[O-])SCCN)c2ccccc21 (centres undefined), the GFP fluorescence (kMESF) is reported as 28.8 kMESF (inactive).
In the case of N/C(Cc1ccc(Cl)c(Cl)c1)=N\OC(=O)c1cccs1, the GFP fluorescence (kMESF) is reported as 29.8 kMESF (inactive).
In the case of O=c1/c(=C/c2cccc3ccccc23)sc2ncnn12, the GFP fluorescence (kMESF) is reported as 36.7 kMESF (inactive).
In the case of Cc1ccc(C(=O)O/N=C(\N)Cc2cccs2)c(Cl)c1, the GFP fluorescence (kMESF) is reported as 22.9 kMESF (inactive).
With Cc1nc2ccc(NC(=O)c3oc4ccc(F)cc4c3C)cc2s1 the GFP fluorescence (kMESF) was 35.7 kMESF (inactive).
For COc1ccc2c(/C=C/c3cc[n+](C)cc3)c[nH]c2c1, the GFP fluorescence (kMESF) was 44.4 kMESF (inactive).
For O=[N+]([O-])c1cc(O)c2ncccc2c1, the GFP fluorescence (kMESF) was 42.7 kMESF (inactive).
With Cc1ccc2c(nc3s/c(=C\c4ccc(-c5ccccc5C(=O)O)o4)c(=O)n32)c1C the GFP fluorescence (kMESF) was 49.9 kMESF (inactive).
With Cn1c(=O)c(C(=O)NNC(=O)c2ccc(Br)cc2)c(O)c2ccccc21 the GFP fluorescence (kMESF) was 26.2 kMESF (inactive).
For Cc1cccc(NC(c2ccc(C)s2)c2ccc3ccc(C)nc3c2O)n1 (centres undefined), the GFP fluorescence (kMESF) was 32.5 kMESF (inactive).
For CSc1nnc2c3cc(F)ccc3n(C)c2n1, the GFP fluorescence (kMESF) was 25.3 kMESF (inactive).
In the case of Oc1ccc2ccccc2c1N=Nc1nccs1, the GFP fluorescence (kMESF) is reported as 43.4 kMESF (inactive).
With Cc1cc(O)c(C(=O)/C=C/c2c(F)c(F)c(F)c(F)c2F)c(=O)o1 the GFP fluorescence (kMESF) was 21.2 kMESF (inactive).
In the case of CC(C)C(=O)NC(c1cccs1)c1cc([N+](=O)[O-])c2cccnc2c1O (centres undefined), the GFP fluorescence (kMESF) is reported as 38.9 kMESF (inactive).
With CCN1/C(=C/C(C)=C/c2sc3ccccc3[n+]2CC)Sc2ccccc21 the GFP fluorescence (kMESF) was 47.5 kMESF (inactive).
For N#Cc1c2ccc([N+](=O)[O-])cc2[n+]([O-])n1-c1ccccc1, the GFP fluorescence (kMESF) was 27.6 kMESF (inactive).
